Results reported in patent publication US20140093935A1, “CHARGED TRIPLET-STATE QUENCHERS FOR MITIGATION OF PHOTO-INDUCED DAMAGE” (Pacific Biosciences of California, Inc., priority 2012, published 2014).

Key:
fluorophore blinking = test: Sequencing-by-synthesis assay, interpulse duration / very short dark periods (blinkiness); type: biochemical; conditions: 3 μM and 5 μM of compound compared with 1 mM of the charged nitrophenyl photoprotective moiety; FIG. 7
Procedure: One measure of photoprotective benefit is monitoring “blinkiness” of dyes in a reaction mixture. For example, in a reaction in which dye-labeled reactants are being observed as they cyclically interact with an unlabeled reactant, the time between interaction events is a length of time during which no dye is present, or a “dark” period. Given certain reaction parameters, e.g., diffusion rates and concentration of the labeled reactant, a distribution of dark periods is measured that centers around a value that is an average time between interaction events. This distribution curve can be perturbed by dye blinking since such blinking introduces a very brief dark period during an interaction event. These blinking-induced dark periods introduce an aberrant peak in the dark period distribution resulting in a peak that is outside of the normal distribution and representing dark periods that are too short to be explained by the reaction parameters. Blinkiness is increased when a dye is excited to the triplet state and there is insufficient photo-induced damage mitigation to quickly return it to a non-triplet state. […]
Experiments were conducted using a single-molecule, real-time (SMRT®) sequencing instrument. […] Sequencing was initiated and reactions were monitored in real time. The fluorescence emissions were recorded, processed, and analyzed. […]

phi29 polymerase enzyme = test: Sequencing-by-synthesis assay, polymerase survival as a function of number of bases sequenced; type: biochemical
From the text: In various embodiments, the amount of photo-induced damage that occurs in a reaction mixture of the invention is detectably less than the amount of photo-induced damage that occurs in the absence of a photoprotective additive according to Formula I or Formula II. Photo-induced damage can be measured in different ways, depending on the particular analytical reaction. One way is by monitoring blinkiness of a fluorescent dye in the reaction, as further explained above. In other embodiments, the amount of photo-induced damage is measured as a length of time a reaction can proceed, e.g., the survival time for an enzyme catalyzing a reaction. For example, in a nucleic acid sequencing-by-synthesis reaction, a proxy for the level of photo-induced damage can be the length of the nascent strand synthesized and/or the length of the sequencing read generated. […]
Experiments were conducted using a single-molecule, real-time (SMRT®) sequencing instrument. […] Sequencing was initiated and reactions were monitored in real time. The fluorescence emissions were recorded, processed, and analyzed.
Further analysis of the fluorescent emissions included measurement of polymerase enzyme survival in the reaction as a function of number of bases sequenced. Another measure of photo-induced damage was the average read length produced in the sequencing reaction.

Structure (SMILES): O=C(CNc1cccc([N+](=O)[O-])c1)NCCCCCCOP(=O)(O)OP(=O)(O)OP(=O)(O)OP(=O)(O)OP(=O)(O)O [TSQ001-6C-5P]
- reducing the incidence of very short dark periods (proxy for blinkiness) (fluorophore blinking): as effective
- increasing survival of a polymerase enzyme (phi29 polymerase enzyme; 1.5, 3, and 5 μM of compound compared with 1 mM of the charged nitrophenyl photoprotective moiety, FIG. 8): more effective
- polymerase survival in a sequencing-by-synthesis reaction is increased (phi29 polymerase enzyme; as compared to the photoprotective moiety alone, by various measures (data not shown)): 15-25%
